The values below come from patent US20070265288A1 (priority 2004, published 2007).

Like-named read-outs stand apart in the source and are kept apart here.

For data set [1] the following is noted: alpha form obtained by process of WO 99/03854; cited from earlier work.
A short description of data set [2]: Forced degradation (stress) study of imatinib mesylate alpha form. Type of data set: physicochemical.
Data set [3] is described as follows: Hygroscopicity of the crystal form according to the invention. It counts as physicochemical.
Where [4] appears, read: 60° C. for 48 hours, listed as RD/IMT-4/31.
The mark [5] stands for this setting: 60° C. for 48 hours, listed as RD/IMT-4/34.
Where [6] appears, read: 105° C. for 12 hours, listed as RD/IMT-4/31.
Setting [7] is: 105° C. for 12 hours, listed as RD/IMT-4/34.
Where [8] appears, read: As such (i.e. no stress condition).
Setting [9] is: As such (i.e. no stress condition), listed as RD/IMT-4/31.
The mark [10] stands for this setting: As such (i.e. no stress condition), listed as RD/IMT-4/34.
Setting [11] is: UV −45° C. 75 RH for 12 hours, listed as RD/IMT-4/31.
The mark [12] stands for this setting: UV −45° C. 75 RH for 12 hours, listed as RD/IMT-4/34.

In the case of `CS(=O)(=O)O.Cc1ccc(NC(=O)c2ccc(CN3CCN(C)CC3)cc2)cc1Nc1nccc(-c2cccnc2)n1` [alpha-crystalline form], in data set [1], the hygroscopicity entry was “highly hygroscopic” and the stability entry was “not stable”.

As for `CS(=O)(=O)O.Cc1ccc(NC(=O)c2ccc(CN3CCN(C)CC3)cc2)cc1Nc1nccc(-c2cccnc2)n1` [imatinib mesylate], the DSC result in data set [2] (60° C. for 48 hours), in data set [2] (105° C. for 12 hours), in data set [2] (setting [8]) and in data set [2] (UV −45° C. 75 RH for 12 hours) was “Complies” throughout. For the same molecule, the XRPD result in data set [2] (60° C. for 48 hours), in data set [2] (105° C. for 12 hours), in data set [2] (setting [8]) and in data set [2] (UV −45° C. 75 RH for 12 hours) was “Complies” each time. Further, the DESCRIPTION result in data set [2] (setting [4]) is recorded as “Pale yellow”; in data set [2] (setting [5]), “Cream coloured”; in data set [2] (setting [6]), “Pale yellow”; in data set [2] (setting [7]) it was “Cream coloured”; in data set [2] (setting [9]) it was “Pale yellow”; in data set [2] (setting [10]), “Cream coloured”. The DESCRIPTION entry in data set [2] (setting [11]) is reported as “Pale yellow”; in data set [2] (setting [12]), “Cream coloured”. For the same molecule, the Purity turned out to be 99.44% in data set [2] (setting [4]); 99.17% in data set [2] (setting [5]); 99.49% in data set [2] (setting [6]); 99.18% in data set [2] (setting [7]); 99.45% in data set [2] (setting [9]); 99.26% in data set [2] (setting [10]). Besides, the Purity in data set [2] (setting [11]) is listed as 99.38%; in data set [2] (setting [12]), 99.18%. For the same molecule, the “Single Max. impurity” value is 0.20% in data set [2] (setting [4]); 0.30% in data set [2] (setting [5]); 0.17% in data set [2] (setting [6]); 0.32% in data set [2] (setting [7]); 0.18% in data set [2] (setting [9]); 0.33% in data set [2] (setting [10]). Moreover, the results for the “Single Max. impurity” value in data set [2] (setting [11]) and in data set [2] (setting [12]) were 0.19% and 0.34%, respectively. Further, the “polymorphic stability by DSC and XRPD evaluation” value in data set [2] (before and after stress study) is recorded as “polymorphically stable”. The “polymorphic identity under stress conditions” value in data set [2] (stress conditions such as milling or heating) is recorded as “retain the polymorphic identity”. The “level of impurities before and after stability study” value in data set [2] (stress: 60° C. 48 hours, 105° C. 12 hours, UV 45° C. at 75% RH 12 hours) was “no increase in the level of impurities”. Besides, the hygroscopicity entry in data set [3] is “non-hygroscopic”. Further, the “HPLC single maximum impurity content” value by setting is: (Initial) 0.23 wt %; (after 6 months) 0.11 wt %; (after 12 months) 0.15 wt %. The “HPLC total impurity content” value amounted to 0.50 wt % (Initial), 0.33 wt % (after 6 months) and 0.41 wt % (after 12 months). Besides, the Water content worked out at 0.39 wt % (Initial), 0.61 wt % (after 6 months) and 0.58 wt % (after 12 months). In addition, where the note is “storage at ambient temperature”, the stability on storage result was “stable chemically and polymorphically”.
